From patent US20230310654A1 (priority 2020, published 2023)

Legend:
male cynomolgus monkeys = settings: cynomolgus monkey, in vivo
juvenile mice = settings: mouse, in vivo
CBE mouse model = settings: in vivo

Row | Molecule | effect on safety or biodistribution of PR001A (male cynomolgus monkeys) | lethality (mice died by P27) (juvenile mice) | body weight (juvenile mice; ip) | adverse effects in peripheral tissues (CBE mouse model) | inhibition of PR001A-encoded and endogenous GCase activity by CBE treatment (CBE mouse model) | reduction of effective GCase activity in tissues following treatment with CBE (CBE mouse model)
1 | CO[C@H]1C[C@@H]2CC[C@@H](C)[C@@](O)(O2)C(=O)C(=O)N2CCCC[C@H]2C(=O)O[C@H]([C@H](C)C[C@@H]2CC[C@@H](O)[C@H](OC)C2)CC(=O)[C@H](C)/C=C(\C)[C@@H](O)[C@@H](OC)C(=O)[C@H](C)C[C@H](C)/C=C/C=C/C=C/1C [rapamycin] | did not appear to have any effect | – | – | – | – | –
2 | conduritol-β-epoxide [CBE] | – | 5 of the 8 | failure to gain weight | No adverse effects | approximately 50% | up to 60%
